The text below walks through data of US7989464B2, “mGluR1 antagonists as therapeutic agents” (Schering Corporation, priority 2004, dated 2011).

Where two headings read alike, the source gives them in different places.

The assay concerns the target T1, hmGluR1 receptor (Homo sapiens, UniProt Q13255).
T1 construct: expressed in transfected cells
Briefly: IC50 determination: intracellular calcium mobilization (FLIPR) upon Quisqualate stimulation in CHO cells stably expressing hmGluR1. The conditions noted are these: against Quisqualate 1 μM (EC80). Type of assay: cell-based. As for the experimental part: A CHO cell line stably expressing hmGluR1 receptor was established. One day prior to assay, cells were split in growth media at concentration of 50,000 cells/well in a volume of 100 μl and seeded into black clear-bottom 96-well plates. After two to six hours, when cells were well attached to the plate, growth medium was replaced with assay medium (100 μL) consisting of DMEM high glucose, supplemented with GPT (1 U/mL) and Sodium pyruvate, 1 mM. Following overnight incubation, medium was discarded and cells were loaded for 2 h with dye from the Calcium 3 Assay Reagent Kit (Molecular Devices, # R8033), prepared according to manufacturers' instructions. […] Test compounds were added 10 minutes before Quisqualate.
In general terms: Calcium flux is commonly read through the fluorescence of an indicator in the cells.

Setting [1] is: FLIPR calcium mobilization, read-out: IC50 Class.
Setting [2] is: class symbols, read-out: mGIuR 1 IC50.
[3] abbreviates: FLIPR calcium mobilization, read-out: mGluR1 IC50.

T1 sequence (Q13255 19-1194): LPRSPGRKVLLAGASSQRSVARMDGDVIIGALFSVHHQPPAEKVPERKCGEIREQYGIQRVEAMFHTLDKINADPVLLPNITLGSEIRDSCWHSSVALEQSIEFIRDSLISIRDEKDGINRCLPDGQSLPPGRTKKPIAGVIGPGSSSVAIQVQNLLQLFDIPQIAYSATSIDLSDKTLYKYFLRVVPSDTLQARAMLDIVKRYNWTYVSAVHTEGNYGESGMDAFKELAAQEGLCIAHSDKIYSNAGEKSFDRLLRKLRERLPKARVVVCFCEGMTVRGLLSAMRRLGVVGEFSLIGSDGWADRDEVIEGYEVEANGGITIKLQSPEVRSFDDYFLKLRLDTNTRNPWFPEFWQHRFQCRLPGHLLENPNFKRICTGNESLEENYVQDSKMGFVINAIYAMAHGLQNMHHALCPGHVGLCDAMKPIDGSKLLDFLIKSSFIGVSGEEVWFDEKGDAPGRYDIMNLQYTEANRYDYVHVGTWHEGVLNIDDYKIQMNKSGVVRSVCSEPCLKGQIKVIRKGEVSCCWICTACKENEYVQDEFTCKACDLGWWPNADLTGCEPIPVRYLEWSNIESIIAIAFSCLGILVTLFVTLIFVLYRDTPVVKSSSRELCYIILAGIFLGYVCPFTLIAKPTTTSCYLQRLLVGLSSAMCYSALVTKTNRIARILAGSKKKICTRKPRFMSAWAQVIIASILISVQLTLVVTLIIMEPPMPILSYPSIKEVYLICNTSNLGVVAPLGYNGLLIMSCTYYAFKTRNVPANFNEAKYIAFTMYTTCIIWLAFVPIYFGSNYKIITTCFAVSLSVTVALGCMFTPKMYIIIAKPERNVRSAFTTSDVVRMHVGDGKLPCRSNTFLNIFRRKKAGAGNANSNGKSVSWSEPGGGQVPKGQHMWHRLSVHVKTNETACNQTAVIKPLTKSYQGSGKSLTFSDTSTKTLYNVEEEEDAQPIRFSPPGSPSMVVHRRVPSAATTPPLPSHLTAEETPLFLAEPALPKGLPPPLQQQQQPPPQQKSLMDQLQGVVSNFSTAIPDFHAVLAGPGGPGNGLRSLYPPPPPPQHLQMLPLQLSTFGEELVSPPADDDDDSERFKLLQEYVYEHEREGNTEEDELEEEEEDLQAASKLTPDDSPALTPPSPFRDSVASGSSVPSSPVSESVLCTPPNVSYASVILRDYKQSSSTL

In the case of `CN(C)c1cccc2sc3c(=O)n(-c4cccc(Cl)c4Cl)cnc3c12` [103I], the IC50 (as a rule, the concentration needed to halve the response being measured) under setting [1] is more than 1 µM.
Still for that read-out and setting: as for `C#CCNc1ncnc2sc3c(=O)n(-c4ccc5sccc5c4)cnc3c12` [95EP], the figure is 0.15 to 1 µM.
Take `CCc1cc(N(C)C)c2c(n1)sc1c(=O)n(-c3ccc(C)cc3)cnc12` [87B]: the IC50 under setting [2] was in the range of 0.05 to 0.15 µM.
The same measure, in the same setting: as for `O=C1CCCN1c1ccnc2sc3c(=O)n(C4CCCCC4)cnc3c12` [30C], the figure is more than 1 µM.
As to `CNc1ccnc2sc3c(=O)n(-c4ccncc4)cnc3c12` [28EF], the IC50 under setting [1] lay in the range of 0.15 to 1 µM.
For the compound `O=c1c2sc3nccc(NCCCO)c3c2ncn1-c1ccc(F)cc1` [28GP], under setting [1], the IC50 was less than 0.05 µM.
Still for that read-out and setting: as for `CN(CCO)c1ccnc2sc3c(=O)n(-c4ccc5c(c4)OCCO5)cnc3c12` [28CF], the figure is less than 0.05 µM; as for `O=c1c2sc3nccc(Cl)c3c2ncn1-c1ccc(Cl)cc1` [57E], 0.15 to 1 µM.
With `Cc1cc(-n2cnc3c(sc4nccc(N(C)C)c43)c2=O)ccc1Br` [7DR], the IC50 is 0.00173 µM under setting [3] and less than 0.05 µM under setting [2].
For `O=C(Nc1ccnc2sc3c(=O)n(C4CCCCC4)cnc3c12)c1ccco1` [73E], the IC50 under setting [2] is more than 1 µM.
Consider `CC(O)CCNc1ccnc2sc3c(=O)n(-c4ccc(Br)cc4)cnc3c12` (stereo not shown) [28HO], for which the IC50 under setting [1] was less than 0.05 µM.
Still for that read-out and setting: as for `C#CCNc1ncnc2sc3c(=O)n(-c4ccc(Cl)cc4)cnc3c12` [95EG], the figure is less than 0.05 µM.
On to `CCCCc1nc2c(sc3nccc(N(C)C)c32)c(=O)n1-c1ccc(C)cc1` [116C], for which the IC50 under setting [2] was 0.15 to 1 µM.
In the case of `Cc1ccc(-n2cnc3c(sc4nccc(NC(C)(C)C)c43)c2=O)cc1` [28EO], under setting [1], the IC50 was 0.15 to 1 µM.
Regarding `CCN(C)c1ncnc2sc3c(=O)n(-c4ccc(C(F)(F)F)cc4)cnc3c12` [95Y], under setting [2], the IC50 was less than 0.05 µM.
Still for that read-out and setting: as for `Cc1nc2cc(-n3cnc4c(sc5nccc(N(C)C)c54)c3=O)ccc2s1` [7AT], the figure is more than 1 µM; as for `CCN(C)c1ncnc2sc3c(=O)n(-c4ccc(OC(F)F)cc4)cnc3c12` [95T], less than 0.05 µM.
Regarding `CCn1cnc2c(sc3ncnc(Nc4ccc(OC)cc4)c32)c1=O` [95GM], the IC50 under setting [1] is more than 1 µM.
As for `Cc1ccc(-n2cnc3c(sc4nccc(N(C)C)c43)c2=O)c(F)c1` [7DW], the IC50 under setting [2] is less than 0.05 µM.
As for `Cc1ccc(-n2cnc3c(sc4nccc(C(N)=O)c43)c2=O)cc1` [compound 76], the IC50 under setting [2] is more than 1 µM.
Take `CC(C)(O)c1ccnc2sc3c(=O)n(-c4ccc(Cl)cc4)cnc3c12` [compound 186]: under setting [1], the IC50 is more than 1 µM.
As for `COc1ccc(-n2cnc3c(sc4nccc(OC)c43)c2=O)cc1` [25B], the IC50 under setting [2] fell in the range of 0.15 to 1 µM.
On the same count and under the same terms, the figure for `Cc1nc2cc(-n3cnc4c(sc5nccc(N(C)C)c54)c3=O)ccc2o1` [7BU] is more than 1 µM.
Turning to `COCCn1cnc2c(sc3ncnc(NCC(F)(F)F)c32)c1=O` [95DY], the IC50 under setting [1] is more than 1 µM.
Consider `COC(=O)c1sccc1-n1cnc2c(sc3nccc(N(C)C)c32)c1=O` [7AU], for which the IC50 under setting [2] was more than 1 µM.
For the compound `CN(C)c1ccnc2sc3c(=O)n(CCc4c(Cl)cccc4Cl)cnc3c12` [28EN], under setting [1], the IC50 was 0.15 to 1 µM.
Regarding `CN(C)c1ccnc2sc3c(=O)n(-c4ccc5c(c4)CC=C5)cnc3c12` [7BL], the IC50 under setting [2] was less than 0.05 µM.
Take `CN(C)c1ccnc2sc3c(=O)n(-c4ccc5scnc5c4)cnc3c12` [7CR]: under setting [2], the IC50 is less than 0.05 µM.
In the case of `COc1ccc(-n2cnc3c(sc4ncnc(Nc5ccc(Cl)cc5)c43)c2=O)cc1` [190E], the IC50 under setting [1] was in the range of 0.15 to 1 µM.
Turning to `CCNc1ccnc2sc3c(=O)n(-c4ccc(S)c(NC=O)c4)cnc3c12` [131G], the IC50 under setting [2] was less than 0.05 µM.
As to `CCOC(=O)C1CCCC(n2cnc3c(sc4nccc(OC)c43)c2=O)C1` (stereo not shown) [28EK], the IC50 under setting [1] is more than 1 µM.
On to `CCOC(=O)CSc1nc2c(sc3nc(C)cc(C)c32)c(=O)n1-c1ccc(Cl)cc1` [P-7], for which the IC50 under setting [2] was 0.15 to 1 µM.
As to `CCNc1ccnc2sc3c(=O)n(-c4ccc(OC)cc4F)cnc3c12` [28BJ], the IC50 under setting [1] is 0.05 to 0.15 µM.
Turning to `COc1ccc(-n2cnc3c(sc4nccc(NC5CCCCC5)c43)c2=O)cc1` [28E], the IC50 under setting [2] was more than 1 µM.
As to `CNc1ccnc2sc3c(=O)n(-c4cccc(Br)c4)cnc3c12` [28CS], under setting [1], the IC50 was 0.05 to 0.15 µM.
In the case of `CN(C)c1ccnc2sc3c(=O)n(-c4cccc(C5CC5)c4)cnc3c12` [137B], the IC50 under setting [2] is less than 0.05 µM.
`C=C(C)CNc1ccnc2sc3c(=O)n(-c4ccc(OC)cc4)cnc3c12` [28FB]: the IC50 under setting [1] was less than 0.05 µM.
With `O=c1c2sc3ncnc(Nc4ccccc4)c3c2ncn1-c1ccc2scnc2c1` [95GE], the IC50 under setting [1] was more than 1 µM.
As to `CN(C)c1ccnc2sc3c(=O)n(-c4ccc5c(c4)NC(=O)CO5)cnc3c12` [7BO], under setting [2], the IC50 was less than 0.05 µM.
With `C=C(C)CNc1ncnc2sc3c(=O)n(-c4ccc(C)cc4)cnc3c12` [95EY], the IC50 under setting [1] was less than 0.05 µM.
Same read-out and setting: as for `CN(CC(O)CO)c1ccnc2sc3c(=O)n(-c4ccc(F)cc4)cnc3c12` (stereo not shown) [28HR], the figure is 0.15 to 1 µM.
In the case of `Cc1cc(-n2cnc3c(sc4nccc(N(C)C)c43)c2=O)no1` [15AE], the IC50 under setting [2] is 0.05 to 0.15 µM.
On the same count and under the same terms, as for `CC(C)Nc1ccnc2sc3c(=O)n(C4CCCCC4)cnc3c12` [28AH], the figure is 0.15 to 1 µM.
Still for that read-out and setting: as for `COc1ccc(-n2cnc3c(sc4ncc(Br)c(N(C)C)c43)c2=O)cc1Br` [compound 149], the figure is more than 1 µM.
As for `Cc1ccc(-n2cnc3c(sc4ncc(C(=O)N5CCNCC5)cc43)c2=O)cc1` [205B], the IC50 under setting [1] is more than 1 µM.
Still for that read-out and setting: the figure for `Cc1ccc(-n2cnc3c(sc4ncc(Br)c(NCCN)c43)c2=O)cc1` [28FM] is 0.15 to 1 µM.
Consider `Cc1ccc(-n2cnc3c(sc4nccc(NC[C@H](C)O)c43)c2=O)cc1` [28BB], for which the IC50 under setting [2] is less than 0.05 µM.
On the same count and under the same terms, the figure for `COc1cc(-n2cnc3c(sc4nccc(N(C)C)c43)c2=O)cc(OC)c1OC` [7AF] is more than 1 µM; for `O=C(Nc1ccnc2sc3c(=O)n(C4CCCCC4)cnc3c12)C1CCC1` [73D] it is more than 1 µM.
Consider `CCc1ccnc2sc3c(=O)n(-c4ccc(C)cc4)cnc3c12` [29G], for which, under setting [1], the IC50 is less than 0.05 µM.
Same read-out and setting: as for `COCC(C)Nc1ccnc2sc3c(=O)n(-c4ccc(Br)cc4)cnc3c12` (stereo not shown) [28HA], the figure is 0.15 to 1 µM.
Consider `CN(C)c1c(C(N)=O)cnc2sc3c(=O)n(C4CCCCC4)cnc3c12` [compound 49], for which the IC50 under setting [2] was more than 1 µM.
On the same count and under the same terms, as for `CN(C)c1ccnc2sc3c(=O)n(Cc4ccccc4)cnc3c12` [7C], the figure is 0.05 to 0.15 µM.
Take `CCNc1ccnc2sc3c(=O)n(-c4ccc(Cl)cc4)cnc3c12` [28HZ]: the concentration for half-maximal inhibition (IC50) is, setting by setting: under setting [1], less than 0.05 µM; under setting [3], 0.00122 µM.
`CN(C)c1ccnc2sc3c(=O)n(-c4nncs4)cnc3c12` [15X]: the IC50 under setting [2] was more than 1 µM.
On to `C=CCNc1ncnc2sc3c(=O)n(-c4ccc(OC)cc4)cnc3c12` [95GP], for which the IC50 under setting [1] is less than 0.05 µM.
On the same count and under the same terms, as for `C=CCc1ccnc2sc3c(=O)n(-c4ccc(Cl)cc4)cnc3c12` [178A], the figure is 0.05 to 0.15 µM.
With `CN(C)c1ccnc2sc3c(=O)n(Cc4cccc(Cl)c4)cnc3c12` [7R], the IC50 under setting [2] fell in the range of 0.15 to 1 µM.
`Cc1ccc(-n2cnc3c(sc4cnnc(NC5CC5)c43)c2=O)cc1` [167A]: the IC50 under setting [1] lay within 0.15 to 1 µM.
In the case of `CC(=O)Nn1c(C)nc2c(sc3nccc(N(C)C)c32)c1=O` [65A], under setting [2], the IC50 was more than 1 µM.
Still for that read-out and setting: the figure for `CCN(C)c1ncnc2sc3c(=O)n(-c4cccnc4)cnc3c12` [95M] is 0.05 to 0.15 µM.
In the case of `Cc1ccc(-n2cnc3c(sc4nccc(NCc5cccs5)c43)c2=O)cc1` [28EQ], under setting [1], the IC50 was in the range of 0.15 to 1 µM.
The same measure, in the same setting: as for `COc1ccc(-n2cnc3c(sc4nccc(Cl)c43)c2=O)cc1` [compound 195], the figure is 0.15 to 1 µM.
Consider `CN(C)c1ccnc2c1c1ncn(-c3ccc(Cl)cc3)c(=O)c1n2C` [134F], for which the IC50 under setting [2] fell in the range of 0.15 to 1 µM.
Still for that read-out and setting: as for `COc1cc(-n2cnc3c(sc4nccc(N(C)C)c43)c2=O)ccc1Br` [7DT], the figure is 0.15 to 1 µM; as for `O=c1c2sc3nccc(NC4CCCCC4)c3c2ncn1-c1ccc(Cl)cc1` [28B], more than 1 µM; as for `Cc1ccc(-n2c(C)nc3c(sc4nccc(NC5CC5)c43)c2=O)cc1` [113J], 0.15 to 1 µM.
Same read-out and setting: the figure for `O=c1c2sc3nccc(NC4CCCCC4)c3c2ncn1C1CCCCC1` [28C] is more than 1 µM.
Still for that read-out and setting: as for `COc1ccc(C(=O)Nc2ccnc3sc4c(=O)n(C5CCCCC5)cnc4c23)cc1` [73F], the figure is more than 1 µM.
Turning to `CNc1ccnc2sc3c(=O)n(-c4ccc(O)cc4)cnc3c12` [7CD], under setting [2], the IC50 is less than 0.05 µM.
For the compound `O=c1c2sc3ncnc(NCC4CC4)c3c2ncn1-c1ccc(Cl)cc1` [95DR], the IC50 under setting [1] was in the range of 0.05 to 0.15 µM.
Take `O=c1c2sc3nccc(NC4CC4)c3c2ncn1C1CCCCC1` [28S]: the IC50 under setting [2] was less than 0.05 µM.
Consider `CCCCOc1ncnc2sc3c(=O)n(-c4ccc(OC)cc4)cnc3c12` [compound 191], for which, under setting [1], the IC50 was more than 1 µM.
Still for that read-out and setting: as for `O=c1c2sc3nccc(NC4CC4)c3c2ncn1-c1ccc2c(c1)CCO2` [28CE], the figure is less than 0.05 µM; as for `O=c1c2sc3nccc(N4CCC[C@H]4CO)c3c2ncn1-c1ccc(Cl)cc1` [28GM], more than 1 µM.
The same measure, in the same setting: the figure for `CNc1ccnc2sc3c(=O)n(-c4ccc(F)cc4)cnc3c12` [28IB] is less than 0.05 µM.
Regarding `COc1ccnc2sc3c(=O)n(-c4ccc5c(c4)CCO5)cnc3c12` [25F], under setting [1], the IC50 lay in the range of 0.15 to 1 µM.
On the same count and under the same terms, as for `O=c1c2sc3ncnc(Nc4ccccc4)c3c2ncn1-c1ccc(Br)cc1` [95GF], the figure is more than 1 µM.
`O=c1c2sc3nccc(N4CCC(O)CC4)c3c2ncn1C1CCCCC1` [28AF]: the IC50 under setting [2] was more than 1 µM.
For `C#CCNc1ccnc2sc3c(=O)n(-c4ccc(Br)cc4)cnc3c12` [28DP], the IC50 by setting is: under setting [1], less than 0.05 µM; under setting [3], 0.00175 µM.
Regarding `CN(C)c1cccc2sc3c(=O)n(-c4ccccc4)cnc3c12` [103C], under setting [2], the IC50 was 0.15 to 1 µM.
Take `CN(C)c1c(Cl)cnc2sc3c(=O)n(-c4ccc(Cl)cc4)cnc3c12` [compound 199]: the IC50 under setting [1] was less than 0.05 µM.
